# Data reported in the supplement of paper PMC10307832.
# Columns and labels:
# Assay in all cases: relative viability (nuclei count vs DMSO), 5 days (fraction); higher = more cells survive
# [1] = compound: CCOc1cc2ncc(C#N)c(Nc3ccc(OCc4ccccn4)c(Cl)c3)c2cc1NC(=O)/C=C/CN(C)C [Neratinib] + COc1cccc2cc(-c3nc([C@H]4CC[C@H](C(=O)O)CC4)n4ncnc(N)c34)[nH]c12 [OSI-027] (partner 0.5 µM)
# Procedure, shortened: (§1)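 Lung cancer cell lines were pin-tool dosed in 1536-well plates on the day after seeding, with either a lone drug or a fixed anchor-drug dose plus five library-drug doses (not always all listed) in √10 steps. Nuclei were counted on 4× images after 5 days. Relative viability is the ratio of treated-well to vehicle-well nuclei counts, with each value a median of duplicate plates.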
# [2] = compound: CCOc1cc2ncc(C#N)c(Nc3ccc(OCc4ccccn4)c(Cl)c3)c2cc1NC(=O)/C=C/CN(C)C [Neratinib] + Cc1nc(NC(=O)N2CCC[C@H]2C(N)=O)sc1-c1ccnc(C(C)(C)C(F)(F)F)c1 [Alpelisib] (partner 2 µM)
# Procedure, shortened: as §1
# [3] = compound: CCOc1cc2ncc(C#N)c(Nc3ccc(OCc4ccccn4)c(Cl)c3)c2cc1NC(=O)/C=C/CN(C)C [Neratinib] + C[C@]1(O)C[C@@H](c2nc(-c3ccc4ccc(-c5ccccc5)nc4c3)c3c(N)nccn32)C1 [Linsitinib] (partner 1 µM)
# Procedure, shortened: as §1
# [4] = compound: CCOc1cc2ncc(C#N)c(Nc3ccc(OCc4ccccn4)c(Cl)c3)c2cc1NC(=O)/C=C/CN(C)C [Neratinib] + CS(=O)(=O)CCNCc1ccc(-c2ccc3ncnc(Nc4ccc(OCc5cccc(F)c5)c(Cl)c4)c3c2)o1 [Lapatinib] (partner 2 µM)
# Procedure, shortened: as §1
Cell Line,relative viability ([1]; first compound 0.01 µM),relative viability ([1]; first compound 0.03162 µM),relative viability ([1]; first compound 0.1 µM),relative viability ([1]; first compound 0.3162 µM),relative viability ([1]; first compound 1 µM),relative viability ([2]; first compound 0.01 µM),relative viability ([2]; first compound 0.03162 µM),relative viability ([2]; first compound 0.1 µM),relative viability ([2]; first compound 0.3162 µM),relative viability ([2]; first compound 1 µM),relative viability ([3]; first compound 0.01 µM),relative viability ([3]; first compound 0.03162 µM),relative viability ([3]; first compound 0.1 µM),relative viability ([3]; first compound 0.3162 µM),relative viability ([3]; first compound 1 µM),relative viability ([4]; first compound 0.01 µM),relative viability ([4]; first compound 0.03162 µM),relative viability ([4]; first compound 0.1 µM),relative viability ([4]; first compound 0.3162 µM),relative viability ([4]; first compound 1 µM)
LCLC-97TM1,0.615,0.537,0.547,0.346,0.27,0.26,0.254,0.24,0.255,0.115,0.215,0.194,0.165,0.161,0.155,1.29,1.01,1.02,0.637,0.275
LK-2,0.189,0.227,0.217,0.189,0.182,1.15,1.17,–,0.816,0.327,0.464,0.521,0.71,0.339,0.214,1.28,1.2,0.95,0.664,0.578
LOU-NH91,0.706,0.715,0.471,0.46,0.408,0.628,0.598,0.507,0.447,0.475,0.871,0.831,0.656,0.504,0.529,0.809,0.776,0.733,0.743,0.567
LU99A,0.287,0.311,0.292,0.288,0.26,0.66,0.625,0.483,0.323,0.259,0.608,0.643,0.365,0.575,0.215,1.04,1.05,0.692,0.587,0.385
LXF-289,0.876,0.875,0.777,0.759,0.542,1.03,1.04,0.974,0.98,0.765,0.998,1.01,0.913,0.98,0.789,–,0.964,0.809,0.924,0.937
NCI-H23,0.717,0.664,0.561,0.504,0.296,0.832,0.716,0.653,0.686,0.329,0.62,–,0.486,0.552,0.398,1.05,0.932,1.09,1.02,0.762
NCI-H322M,0.515,0.592,0.519,0.365,0.307,0.657,0.839,0.803,0.478,0.218,0.752,0.929,0.793,0.486,0.337,0.587,0.569,0.522,0.567,0.449
NCI-H358,0.65,0.514,0.275,0.117,0.107,0.781,0.841,0.372,0.236,0.22,–,–,0.264,0.26,0.205,0.502,0.47,0.42,0.405,0.237
NCI-H460,0.61,0.891,0.596,0.419,0.0301,0.598,0.6,–,0.403,0.0801,0.918,1.1,–,0.612,0.222,1.15,1.38,–,0.921,0.557
NCI-H520,0.288,0.253,0.261,0.234,0.178,0.955,1.14,0.905,0.819,0.547,1.04,0.981,1.08,0.742,–,1,1,0.858,–,0.682
NCI-H596,0.771,0.822,0.686,0.704,0.386,0.464,0.474,0.433,0.489,0.304,1.2,1.07,0.995,0.923,0.791,1.2,1.06,–,1.13,0.859
NCI-H647,0.831,0.738,0.593,0.483,0.175,1.17,1.13,0.958,0.862,0.614,1.08,1.16,1.14,1.07,0.601,0.989,1.27,0.857,1,0.802
NCI-H650,0.546,0.544,0.553,0.46,0.456,1.13,1.32,0.999,–,0.85,1,0.986,1.03,–,0.577,1.04,1.02,0.996,–,1.04
NCI-H661,0.688,0.615,0.54,0.325,0.24,0.66,0.959,0.443,0.187,0.236,0.621,0.536,0.499,0.299,0.197,0.563,0.45,0.431,0.427,0.312
NCI-H727,0.58,0.68,0.466,0.638,0.406,0.525,0.542,–,0.441,0.276,0.244,0.282,–,0.286,0.255,0.898,0.994,–,0.928,0.786
NCI-H838,0.463,0.492,0.419,0.325,0.226,1.05,1.16,0.94,0.832,0.344,1.06,1.17,0.945,0.819,0.409,1.11,1.2,0.949,0.947,0.468
NCI-H1355,0.402,0.379,0.346,0.358,0.277,0.949,0.83,0.788,0.698,0.236,0.894,0.825,0.775,0.63,0.453,1.09,1.06,1.04,0.984,0.938

Cell Line,relative viability ([1]; first compound 0.01 µM),relative viability ([1]; first compound 0.03162 µM),relative viability ([1]; first compound 0.1 µM),relative viability ([1]; first compound 0.3162 µM),relative viability ([1]; first compound 1 µM),relative viability ([2]; first compound 0.01 µM),relative viability ([2]; first compound 0.03162 µM),relative viability ([2]; first compound 0.1 µM),relative viability ([2]; first compound 0.3162 µM),relative viability ([2]; first compound 1 µM),relative viability ([3]; first compound 0.01 µM),relative viability ([3]; first compound 0.03162 µM),relative viability ([3]; first compound 0.1 µM),relative viability ([3]; first compound 0.3162 µM),relative viability ([3]; first compound 1 µM),relative viability ([4]; first compound 0.01 µM),relative viability ([4]; first compound 0.03162 µM),relative viability ([4]; first compound 0.1 µM),relative viability ([4]; first compound 0.3162 µM),relative viability ([4]; first compound 1 µM)
NCI-H1395,–,0.748,0.632,0.623,0.468,1.07,1.17,1.06,1.07,0.729,1.13,1.24,0.991,1.2,0.619,1.02,1.54,1.11,1.22,0.784
NCI-H1437,0.851,0.886,0.812,0.763,0.759,1.11,1.07,0.714,0.912,0.617,1.27,1.1,–,0.793,0.723,0.911,0.881,0.771,0.721,0.703
NCI-H1563,0.806,0.725,0.732,0.67,0.575,0.815,0.984,0.877,0.843,0.875,1.22,1.24,0.993,1.1,0.998,0.921,0.975,0.889,1.57,0.843
NCI-H1651,0.769,0.838,0.627,0.564,0.337,1.03,1,0.823,0.783,0.616,1.13,0.925,0.911,0.747,0.786,0.881,1.01,0.77,–,0.68
NCI-H1666,0.901,0.905,0.751,0.552,0.683,0.919,0.772,0.57,0.433,0.369,0.876,0.654,0.591,0.372,0.361,1.02,0.769,0.546,0.673,0.596
NCI-H1734,0.659,0.638,–,0.552,0.331,0.744,–,0.588,0.533,0.479,0.997,0.925,0.814,0.754,0.646,1.28,1.1,0.909,1.06,0.829
NCI-H1755,0.795,0.785,0.721,0.695,0.528,0.947,1.04,0.899,0.946,0.409,1.04,0.988,0.911,1.05,0.775,1.03,1.07,0.969,1.12,1.09
NCI-H1792,0.825,0.87,0.698,0.692,0.424,–,0.803,0.639,0.599,0.484,0.505,0.468,0.53,0.489,0.463,1.02,1.08,0.547,0.81,0.849
NCI-H1793,0.309,0.26,0.237,0.167,0.145,0.708,0.664,0.472,0.519,0.296,0.863,1.03,0.494,0.596,0.364,0.693,0.646,0.576,0.75,0.642
NCI-H1915,0.697,0.67,0.294,0.595,0.424,1.12,1.13,1.04,0.99,0.829,1.11,1.13,–,1.09,0.874,1.05,1.05,0.898,0.832,0.964
NCI-H1944,0.467,0.419,0.337,0.286,0.289,0.948,0.782,0.615,0.561,0.393,1.28,1.08,0.93,0.645,0.435,1.17,0.845,0.732,0.836,0.705
NCI-H1975,0.826,0.921,0.629,0.25,0.177,0.85,0.738,0.546,0.153,0.192,1.13,1.12,0.78,0.285,0.223,1.09,0.972,0.609,0.403,0.191
NCI-H1993,0.387,0.576,0.655,0.643,0.674,0.624,0.666,0.717,0.687,0.664,0.833,0.659,0.71,0.648,0.838,0.88,0.795,0.79,0.845,0.803
NCI-H2009,0.677,0.762,0.59,0.467,0.304,1.14,1.16,1.11,1.17,0.955,1.2,1.15,0.85,1.18,–,0.939,1.15,0.862,0.834,1.52
NCI-H2023,0.432,0.493,0.31,0.331,0.179,0.62,0.611,0.511,0.445,0.298,0.658,0.675,0.465,0.446,0.303,0.888,0.804,0.758,0.878,0.723
NCI-H2085,0.736,0.882,0.647,0.398,0.266,1.02,–,0.778,0.7,0.549,0.858,1.11,0.81,0.668,0.474,0.76,0.887,0.767,0.71,0.699
